Test results taken from patent publication US8980911B2, “Heterocyclic compounds as protein kinase inhibitors” (Daiichi Sankyo Company, Limited, priority 2011, dated 2015).

Experiments:
Assay type in all cases: biochemical
JAK1 = target: T1, JAK1 (Homo sapiens, UniProt P23458); assay: In vitro enzyme assay (cell-free HTRF kinase assay), JAK1; details: catalytic domain aa 850-1154, GST-tag; ATP 60 μM, SRCtide 400 nM, reaction 120 min
T1 construct: JAK1 (aa 850-1154) and TYK2 (aa 871-1187) are expressed with an N-terminally fused GST-tag; GST (N); purchased Carna Bioscience, Inc; host or cells: baculovirus expression system
Procedure: (§1) Kinase buffer [50 mM HEPES (pH 7.5), 1 mM EGTA, 10 mM MgCl2, 2 mM DTT and 0.01% Tween-20) was prepared and dilutions of a compound of formula (I) and other reagents were subsequently made in it. Two times concentrated compound of formula (I) solution: A compound of formula (I) was diluted to 100-fold final concentration in DMSO, followed by 50-fold dilution with Kinase buffer (1% DMSO final concentration). Four times concentrated Substrate/ATP mix solution: Biotin-SRCtide and ATP were diluted to 4-fold final concentration in Kinase buffer. Biotin-SRCtide solution (purchased from Anaspec) was mixed with ATP solution (1:1). Four times concentrated Enzyme solution: JAK1 or JAK2 or JAK3 or TYK2 enzyme [Human baculo virus expressed JAK1, JAK2, JAK3 and TYK2 were purchased from Carna Bioscience, Inc. All enzymes only contain the catalytic domain. JAK1 (aa 850-1154) and TYK2 (aa 871-1187) are expressed with an N-terminally fused GST-tag, and JAK2 and JAK3 with an N-terminally fused His-tag] was diluted to 4-fold final concentration in Kinase buffer and always kept on ice. Detection buffer: LANCE detection buffer (10 times concentrated) was diluted 10-fold in H2O. Four times concentrated stop solution: EDTA was diluted to a concentration of 40 mM in detection buffer. Four times concentrated ULight/Eu-antibody (from Perkin Elmer) mix solution: ULight-Streptavidin was diluted to a concentration of 100 nM (25 ng/mL final concentrations) and Eu-anti-phospho-Tyrosine (PT66) (from Perkin Elmer) was diluted to a concentration of 8 nM (2 ng/mL final concentration) in detection buffer.
(§2) Cell-free in vitro kinase assay was performed in 384 well plates. Two times concentrated compound solution (5 μL) was pipetted into a HTS 384SV Small Volume Plate. Four times concentrated Substrate/ATP mix (2.5 μL) solution was added along with 4 times concentrated Enzyme solution (2.5 μL). Plate was covered with TopSeal-A and incubated at room temperature for indicated time (Table 3). Four times concentrated Stop solution (5 μL, 10 mM final concentration) was added and incubated for 5 minutes at room temperature. Four times concentrated ULight/Eu-antibody mix solution (5 μL) was added and again plate was covered with TopSeal and incubated overnight at 4° C. TopSeal was removed and HTRF signal was measured at 615 nm and […] (excitation at 320 or 340 nm) on Tecan M1000 Multi mode plate reader. Ratio (665 nm/615 nm)×10^4 was calculated and IC50 values were deduced from Graph-pad prism 4.2.

JAK2 = target: T2, JAK2 (Homo sapiens, UniProt O60674); assay: In vitro enzyme assay (cell-free HTRF kinase assay), JAK2; details: catalytic domain, His-tag; ATP 10 μM, SRCtide 25 nM, reaction 30 min
T2 construct: All enzymes only contain the catalytic domain; His (N); purchased Carna Bioscience, Inc; host or cells: baculovirus expression system
Procedure: as §1, §2

JAK3 = target: T3, JAK3 (Homo sapiens, UniProt P52333); assay: In vitro enzyme assay (cell-free HTRF kinase assay), JAK3; details: catalytic domain, His-tag; ATP 3 μM, SRCtide 100 nM, reaction 30 min
T3 construct: All enzymes only contain the catalytic domain; His (N); purchased Carna Bioscience, Inc; host or cells: baculovirus expression system
Procedure: as §1, §2

T2 sequence (O60674 849-1124 limits assumed): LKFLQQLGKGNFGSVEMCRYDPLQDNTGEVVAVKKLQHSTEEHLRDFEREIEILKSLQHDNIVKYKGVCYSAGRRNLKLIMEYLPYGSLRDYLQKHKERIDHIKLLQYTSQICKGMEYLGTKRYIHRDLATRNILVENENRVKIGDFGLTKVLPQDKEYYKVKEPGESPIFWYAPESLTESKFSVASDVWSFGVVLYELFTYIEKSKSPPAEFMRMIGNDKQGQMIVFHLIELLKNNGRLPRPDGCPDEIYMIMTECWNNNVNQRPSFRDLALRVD
T1 sequence (P23458 850-1154): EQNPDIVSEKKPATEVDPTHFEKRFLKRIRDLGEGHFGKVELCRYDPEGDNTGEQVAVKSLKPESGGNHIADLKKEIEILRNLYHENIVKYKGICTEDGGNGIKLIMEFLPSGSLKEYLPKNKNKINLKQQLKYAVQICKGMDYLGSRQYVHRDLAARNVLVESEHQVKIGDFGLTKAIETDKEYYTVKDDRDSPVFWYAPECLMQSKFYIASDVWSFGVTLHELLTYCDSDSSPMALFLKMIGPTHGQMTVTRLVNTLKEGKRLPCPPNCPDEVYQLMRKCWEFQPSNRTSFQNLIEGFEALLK
T3 sequence (P52333 822-1111 limits assumed): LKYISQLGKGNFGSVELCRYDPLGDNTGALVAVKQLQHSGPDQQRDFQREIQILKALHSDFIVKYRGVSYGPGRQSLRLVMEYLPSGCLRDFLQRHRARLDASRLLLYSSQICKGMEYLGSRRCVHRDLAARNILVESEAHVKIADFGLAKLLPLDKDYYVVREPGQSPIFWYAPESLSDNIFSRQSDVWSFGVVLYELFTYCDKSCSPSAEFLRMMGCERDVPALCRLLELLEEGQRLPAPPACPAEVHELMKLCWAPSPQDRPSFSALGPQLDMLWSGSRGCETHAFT

Row | Structure (SMILES) | IC50 (JAK1) [nM] | IC50 (JAK2) [nM] | IC50 (JAK3) [nM]
1 | COCCNC(=O)Nc1cc(Cl)c(C(=O)n2ccc3c(NC(=O)C4CC4)nccc32)c(Cl)c1 [Compound No. 111, N-[1-(2,6-Dichloro-4-{[(2-methoxyethyl)carbamoyl]amino}benzoyl)-1H-pyrrolo[3,2-c]pyridin-4-yl]cyclopropanecarboxamide] | < 1000 | < 500 | < 500
2 | O=C(Nc1cc(Cl)c(C(=O)n2ccc3c(NC(=O)C4CC4)nccc32)c(Cl)c1)NC1CC1 [Compound No. 113, N-(1-{2,6-Dichloro-4-[(cyclopropylcarbamoyl)amino]benzoyl}-1H-pyrrolo[3,2-c]pyridin-4-yl)cyclopropanecarboxamide] | < 1000 | < 500 | < 500
3 | O=C(Nc1cc2c(ccn2C(=O)c2c(Cl)cccc2Cl)cn1)C1CC1 [Compound No. 120, N-[1-(2,6-Dichlorobenzoyl)-1H-pyrrolo[3,2-c]pyridin-6-yl]cyclopropanecarboxamide] | < 100 | < 50 | < 50
4 | CCNC(=O)c1cc(Cl)c(C(=O)n2ccc3cnc(NC(=O)C4CC4)cc32)c(Cl)c1 [Compound No. 130, 3,5-dichloro-4-({6-[(cyclopropylcarbonyl)amino]-1H-pyrrolo[3,2-c]pyridin-1-yl}carbonyl)-N-ethylbenzamide] | < 500 | < 50 | < 100
5 | N#Cc1cc(Cl)c(C(=O)n2ccc3cnc(NC(=O)C4CC4)cc32)c(Cl)c1 [Compound No. 137, N-[1-(2,6-dichloro-4-cyanobenzoyl)-1H-pyrrolo[3,2-c]pyridin-6-yl]cyclopropanecarboxamide] | < 500 | < 50 | < 500
6 | CCOC(=O)[C@H](C)NC(=O)c1cc(Cl)c(C(=O)n2ccc3c(NC(=O)C4CC4)nccc32)c(Cl)c1 [Compound No. 141, Ethyl N-[3,5-dichloro-4-({4-[(cyclopropylcarbonyl)amino]-1H-pyrrolo[3,2-c]pyridin-1-yl}carbonyl)benzoyl]alaninate] | < 1000 | < 1000 | < 1000
7 | O=C(NCC(O)CO)c1cc(Cl)c(C(=O)n2ccc3c(NC(=O)C4CC4)nccc32)c(Cl)c1 (stereo not drawn) [Compound No. 143, 3,5-Dichloro-4-({4-[(cyclopropylcarbonyl)amino]-1H-pyrrolo[3,2-c]pyridin-1-yl}carbonyl)-N-(2,3-dihydroxypropyl)benzamide] | < 1000 | < 500 | < 50
8 | O=C(NCc1ccccn1)c1cc(Cl)c(C(=O)n2ccc3c(NC(=O)C4CC4)nccc32)c(Cl)c1 [Compound No. 147, 3,5-Dichloro-4-({4-[(cyclopropylcarbonyl)amino]-1H-pyrrolo[3,2-c]pyridin-1-yl}carbonyl)-N-(pyridin-2-ylmethyl)benzamide] | < 500 | < 500 | < 500
9 | O=C(NCCN1CCCC1)c1cc(Cl)c(C(=O)n2ccc3c(NC(=O)C4CC4)nccc32)c(Cl)c1 [Compound No. 148, 3,5-Dichloro-4-({4-[(cyclopropylcarbonyl)amino]-1H-pyrrolo[3,2-c]pyridin-1-yl}carbonyl)-N-[2-(pyrrolidin-1-yl)ethyl]benzamide] | < 500 | < 500 | < 100
10 | O=C(NCCCN1CCOCC1)c1cc(Cl)c(C(=O)n2ccc3c(NC(=O)C4CC4)nccc32)c(Cl)c1 [Compound No. 149, 3,5-Dichloro-4-({4-[(cyclopropylcarbonyl)amino]-1H-pyrrolo[3,2-c]pyridin-1-yl}carbonyl)-N-[3-(morpholin-4-yl)propyl]benzamide] | < 500 | < 1000 | < 500
11 | O=C(NCCN1CCCCC1)c1cc(Cl)c(C(=O)n2ccc3c(NC(=O)C4CC4)nccc32)c(Cl)c1 [Compound No. 150, 3,5-Dichloro-4-({4-[(cyclopropylcarbonyl)amino]-1H-pyrrolo[3,2-c]pyridin-1-yl}carbonyl)-N[2-(piperidin-1-yl)ethyl]benzamide] | < 500 | < 500 | < 500

Now from value to molecule:

Row | IC50 (JAK1) [nM] | IC50 (JAK2) [nM] | IC50 (JAK3) [nM] | Structure (SMILES)
12 | < 500 | < 500 | < 500 | CC(C)NC(=O)c1cc(Cl)c(C(=O)n2ccc3c(NC(=O)C4CC4)nccc32)c(Cl)c1 [Compound No. 107, 3,5-Dichloro-4-({4-[(cyclopropylcarbonyl)amino]-1H-pyrrolo[3,2-c]pyridin-1-yl}carbonyl)-N-(propan-2-yl)benzamide]
13 | < 1000 | < 500 | < 500 | CN(CCO)C(=O)Nc1cc(Cl)c(C(=O)n2ccc3c(NC(=O)C4CC4)nccc32)c(Cl)c1 [Compound No. 112, N-[1-(2,6-Dichloro-4-{[(2-hydroxyethyl)(methyl)carbamoyl]amino}benzoyl)-1H-pyrrolo[3,2-c]pyridin-4-yl]cyclopropanecarboxamide]
14 | < 1000 | < 500 | < 500 | O=C(NCCO)Nc1cc(Cl)c(C(=O)n2ccc3c(NC(=O)C4CC4)nccc32)c(Cl)c1 [Compound No. 115, N-[1-(2,6-Dichloro-4-{[(2-hydroxyethyl)carbamoyl]amino}benzoyl)-1H-pyrrolo[3,2-c]pyridin-4-yl]cyclopropanecarboxamide]
15 | < 1000 | < 500 | < 100 | CN(C)CCNC(=O)c1cc(Cl)c(C(=O)n2ccc3c(NC(=O)C4CC4)nccc32)c(Cl)c1 [Compound No. 122, 3,5-Dichloro-4-({4-[(cyclopropylcarbonyl)amino]-1H-pyrrolo[3,2-c]pyridin-1-yl}carbonyl)-N-[2-(dimethylamino)ethyl]benzamide]
16 | < 500 | < 100 | < 50 | NCCNC(=O)c1cc(Cl)c(C(=O)n2ccc3c(NC(=O)C4CC4)nccc32)c(Cl)c1 [Compound No. 127, N-(2-Aminoethyl)-3,5-dichloro-4-({4-[(cyclopropylcarbonyl)amino]-1H-pyrrolo[3,2-c]pyridin-1-yl}carbonyl)benzamide]
17 | < 1000 | < 500 | < 500 | CC(CO)NC(=O)c1cc(Cl)c(C(=O)n2ccc3c(NC(=O)C4CC4)nccc32)c(Cl)c1 (stereo not drawn) [Compound No. 151, 3,5-Dichloro-4-({4-[(cyclopropylcarbonyl)amino]-1H-pyrrolo[3,2-c]pyridin-1-yl}carbonyl)-N-(1-hydroxypropan-2-yl)benzamide]
18 | < 1000 | < 500 | < 500 | O=C(NCCF)c1cc(Cl)c(C(=O)n2ccc3c(NC(=O)C4CC4)nccc32)c(Cl)c1 [Compound No. 154, 3,5-Dichloro-4-({4-[(cyclopropylcarbonyl)amino]-1H-pyrrolo[3,2-c]pyridin-1-yl}carbonyl)-N-(2-fluoroethyl)benzamide]
19 | < 500 | < 500 | < 100 | CNCc1cc(Cl)c(C(=O)n2ccc3c(NC(=O)C4CC4)nccc32)c(Cl)c1 [Compound No. 163, N-(1-{2,6-Dichloro-4-[(methylamino)methyl]benzoyl}-1H-pyrrolo[3,2-c]pyridin-4-yl)cyclopropanecarboxamide]
20 | < 500 | < 500 | < 500 | CCNCc1cc(Cl)c(C(=O)n2ccc3c(NC(=O)C4CC4)nccc32)c(Cl)c1 [Compound No. 164, N-(1-{2,6-Dichloro-4-[(ethylamino)methyl]benzoyl}-1H-pyrrolo[3,2-c]pyridin-4-yl)cyclopropanecarboxamide]
21 | < 1000 | < 500 | < 500 | O=C(Nc1nccc2c1ccn2C(=O)c1c(Cl)cc(CNCCN2CCNC2=O)cc1Cl)C1CC1 [Compound No. 165, N-{1-[2,6-Dichloro-4-({[2-(2-oxoimidazolidin-1-yl)ethyl]amino}methyl)benzoyl]-1H-pyrrolo[3,2-c]pyridin-4-yl}cyclopropanecarboxamide]
